Results on one compound are retold here after patent US20230120044A1, “AGROCHEMICAL ADJUVANTS” (Croda International Plc, priority 2020, published 2023).

The subject of this assay is Botrytis cinerea (ATCC 90479). The experiment in a line: Adjuvancy with pyraclostrobin, agar growth inhibition of hyphal inoculum. The format is cell-based. Conditions: for Fold Change in Growth Inhibition: vs pyraclostrobin alone, 48 hours, 22° C. Here is the method: Percent Inhibition—The percent inhibition will be understood to represent the amount the fungicide and/or adjuvant inhibits the visible growth of the microorganism after 48 hours incubation at 22° C. relative to vehicle treated controls. This is calculated using the following formula: […]
Fold Change—The fold change is a measure of the adjuvant/fungicide combination in inhibiting a microorganism compared to the fungicide alone. This indicates how the adjuvant performs relative to the fungicide alone. This is calculated using the following formula: […]
Botrytis cinerea (ATCC 90479) was cultured on potato dextrose agar (PDA) for 7 days with diurnal UV cycles (12 h UV light and 12 h dark). Spores were harvested in a buffered, sterile saline solution (0.9% saline water with 1% Tween 80) and counted using a haemocytometer. The spore suspension was adjusted to a final concentration of 8.5×10^6 spores/mL to create a standardised inoculum.
To prepare hyphal fragments for adjuvant testing, 8.5×10^4 spores were used to inoculate 10 mL of potato dextrose broth in a 150×25 mm tube. The tube was incubated at 220 RPM, 22° C. for 48 hours. To create hyphal fragments from the culture, the culture was transferred to a 50 mL plastic conical tube containing approximately 20 sterile 5 mm diameter glass beads and vortexed for 5 min. After vortexing the tube was allowed to stand for 5 min to allow large mycelial clumps to settle and then the top layer containing hyphal fragments was removed and used as inocula for growth inhibition assays.
Fungicides and adjuvants were dissolved in methanol and added to molten PDA (˜50° C.) and then the agar was distributed in the wells of 12 well multiwell plates (1 mL/well). The plates were cooled to room temperature and 10 μL of hyphal inoculum was added to the centre of each well. The plates were incubated at 22° C. for 48 hours and then the colony diameter was measured using a digital caliper. The biological growth control consisted of hyphae and vehicle (0.07% methanol), the negative control was media and vehicle (0.07% methanol).

As for `C/C=C/[C@@H]1[C@H]2C[C@@H](C)CC[C@@H]2C(C)=C[C@H]1C(=O)c1c(O)c(-c2ccc(O)cc2)c[nH]c1=O` [Ilicicolin H (A), ilicicolin H], the “Fold Change in Growth Inhibition” value was determined as 3.32 (adjuvant 1.56 μg/mL + pyraclostrobin 0.1 μg/mL); 1.93 (adjuvant 1.56 μg/mL + pyraclostrobin 0.2 μg/mL); 1.36 (adjuvant 1.56 μg/mL + pyraclostrobin 0.4 μg/mL); 1.04 (adjuvant 1.56 μg/mL + pyraclostrobin 0.8 μg/mL); 3.51 (adjuvant 3.13 μg/mL + pyraclostrobin 0.1 μg/mL); 2.43 (adjuvant 3.13 μg/mL + pyraclostrobin 0.2 μg/mL). Moreover, the “Fold Change in Growth Inhibition” value came out at 1.35 (adjuvant 3.13 μg/mL + pyraclostrobin 0.4 μg/mL); 1.21 (adjuvant 3.13 μg/mL + pyraclostrobin 0.8 μg/mL); 3.62 (adjuvant 6.25 μg/mL + pyraclostrobin 0.1 μg/mL); 1.88 (adjuvant 6.25 μg/mL + pyraclostrobin 0.2 μg/mL); 1.26 (adjuvant 6.25 μg/mL + pyraclostrobin 0.4 μg/mL); 0.96 (adjuvant 6.25 μg/mL + pyraclostrobin 0.8 μg/mL). Moreover, the “inherent fungicidal activity on their own” value (adjuvant alone, at any of the concentrations tested) is listed as “did not demonstrate any inherent fungicidal activity”.
